Common to all, as to format: functional
One test relates to Sordaria fimicola. Kind of test: Antifungal activity against Sordaria fimicola NRRL 6459 assessed as reduction in radical growth at 200 ug/disk by centerpoint inoculation disk assay. Details: scale not given: the % may be the effect or the level left.
The test system of a further test is Ascobolus. Briefly: Antifungal activity against Ascobolus furfuraceus NRRL 6460 assessed as reduction in radical growth at 200 ug/disk by centerpoint inoculation disk assay. On the set-up: scale not given: the % may be the effect or the level left.
The next test deals with Bacillus subtilis. Kind of test: […] activity against Bacillus subtilis ATCC 6051 at 200 ug/disk by standard disk assay. The note with it: read-out: IZ.
In a further test the test system is Staphylococcus aureus. Kind of test: […] activity against Staphylococcus aureus ATCC 29213 at 200 ug/disk by standard disk assay. The note with it: read-out: IZ.

For the compound `COC(=O)c1cc(OC)cc(OC(=O)c2c(O)cc3cc(C)oc(=O)c3c2O)c1O` [CERCOPHORIN B], the Activity in the test with Sordaria fimicola amounted to 10%.

Consider `Cc1oc(=O)c2c(O)cc(O)c(C)c2c1C` [DECARBOXYCITRINONE], for which the Activity with Sordaria fimicola and in the test with Ascobolus was 100% throughout.

For `COC(=O)c1cc(OC)cc(O)c1OC(=O)c1c(O)cc2cc(C)oc(=O)c2c1O` [CERCOPHORIN C], in the test on Sordaria fimicola, the Activity is reported as 51%.

Take `COC(=O)c1cc(OC)cc(O)c1C(=O)c1c(O)cc2cc(C)oc(=O)c2c1O` [CERCOPHORIN A]: the Activity in the test on Sordaria fimicola is 34%. Also, the zone of inhibition at 200 µg/disc in the test with Bacillus subtilis worked out at 26 mm; in the test on Staphylococcus aureus, 16 mm.

For the origin of these results see ChEMBL document CHEMBL1158261, “Cercophorins A-C: novel antifungal and cytotoxic metabolites from the coprophilous fungus Cercophora areolata” (1996).
